According to article PMC10032564, “Ligand-Capped Cobalt(II) Multiplies the Value of the Double-Histidine Motif for PCS NMR Studies” (Journal of the American Chemical Society, 2023):

Experiments:
[1] = target: T1, GB1 (K28H/Q32H, diHis GB1) (Streptococcus sp. 'group G', UniProt P06654, K254H/Q258H); assay: NMR titration; PCS of the IDA-Co2+ complex; format: binding
T1 construct: gene spg; GB1

[2] = target: T1, GB1 (K28H/Q32H, diHis GB1); assay: NMR (Kd measurement; PCS of the NTA-Co2+ complex); format: binding

T1 sequence (P06654 228-282 K254H/Q258H limits assumed): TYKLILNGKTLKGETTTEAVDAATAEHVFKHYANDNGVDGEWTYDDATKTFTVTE

With `O=C(O)CNCC(=O)O` [IDA-Co2+, iminodiacetic acid] the Kd [1] was < 212 µM.

Compound `O=C(O)CN(CC(=O)O)CC(=O)O` [NTA-Co2+, nitrilotriacetic acid] has a Kd [2] of 128 µM.
